Reference: PMC8179393 (Chemical Science, 2021)

Key:
OVCAR8 cells = assay: Cellular cisplatin sensitization assay; type: cell-based, human; details: OVCAR8, absence of cisplatin, peptide 50 μM or chloroquine 5 μM, 48 h
HEY cells = assay: Cellular cisplatin sensitization assay; type: cell-based, human; details: absence of cisplatin, peptide 50 μM or chloroquine 5 μM, 48 h

## CCN(CC)CCCC(C)Nc1ccnc2cc(Cl)ccc12 (centres unmarked) [chloroquine]
OVCAR8 cells
  cell viability (MTT), in words: significantly reduced cell viability
HEY cells
  cell viability (MTT), in words: significantly reduced cell viability
